Measurements published in patent US20030055244A1, “Pyridyl-containing spirocyclic compounds as inhibitors of fibrinogen-dependent platelet aggregation” (priority 1999, published 2003).
pIC50: −log10 of the molar value. Where two headings read alike, the source gives them in different places.

Assays:
[1] = system: human platelet-rich plasma; assay: Platelet aggregation assay (Aggregation-Human PRP/ADP); assay type: cell-based
[2] = system: human platelet-rich plasma; assay: as above; assay type: cell-based; remark: listed apart in the source
Experimental: Platelet-rich plasma was prepared from healthy human volunteers for use in determining inhibition of platelet aggregation by the compounds.
Platelet-rich plasma was prepared at room temperature by centrifugation of the citrated whole blood at 100 × g for twelve minutes. The platelet rich plasma contained approximately 200-400,000 platelets/μl.
Platelet aggregation was assayed in a 4-channel platelet aggregation profiler (PAP-4, Biodata, Hatboro, Pa.) according to the manufacturers directions. Inhibition of platelet aggregation was studied by adding varying amounts of adenosine diphosphate (ADP) to stirred human platelet-rich plasma. Specifically, the human platelet-rich plasma was incubated with the compound being tested for 1 minute at 37° C. prior to the addition of a variety of aggregating agents most often ADP 5 μM to 20 μM, but also 1 μg/ml collagen, 1 μM U46619 and 0.3 μM platelet activating factor.

GPIIb-IIIa = target: T1, GPIIb-IIIa (Homo sapiens, UniProt P05106+P08514); assay: ELISA IIb-IIIa assay (fibrinogen binding to immobilized purified GPIIb-IIIa); details: inhibition of fibrinogen binding to purified GPIIb-IIIa
T1 construct: Purified platelet GPIIb-IIIa receptor was prepared as described by Fitzgerald; from tissue; host or cells: platelets
Experimental: No. 1 - The ELISA IIb-IIIa Assay
PIIb-IIIa is coated onto microtiter plates. The coated support is then contacted with fibrinogen and with the test material (e.g., compounds of Formula I) and incubated for a sufficient time to permit maximal binding of fibrinogen to the immobilized GPIIb- Ila. Fibrinogen is typically provided at a concentration of about 5-50 nM and the test material can, if desired, be added at a series of dilution. Typical incubations are 2 to 4 hours at 25° C., the time and temperature being interdependent.
After incubation, the solution containing the fibrinogen and test material is removed and the level of binding of fibrinogen measured by quantitating bound fibrinogen to GPIIb-IIIa. Any suitable means of detection may be used, but it is convenient to employ labeled fibrinogen, for example using biotinylated labels. Such methods are well known in the art.
A. Description of Assays—Plate Assays
After purification, the receptors were stored in 0.1% Triton X-100 at 0.1-1.0 mg/ml.
The receptors were coated to the wells of 96-well flat-bottom ELISA plates (Linbro EIA-Plus microtiter plate, Flow Laboratories) after diluting 1:200 with a solution of 20 mM Tris-HCl, 150 mM NaCl, 1 mM CaCl2, pH 7.4, to reduce the Triton X-100 concentration to below its critical micellar concentration and adding an aliquot of 100 ul to each well. The wells were all allowed to incubate overnight at 4° C., and then aspirated to dryness. Additional sites were blocked by the addition of bovine serum albumin (BSA) at 35 mg/ml in the above buffer for two hours at 30° C. to prevent nonspecific binding. The wells were then washed once with binding buffer ([…] Tris-HCl, 100 mM NaCl 2 mM CaCl2, 1 mg/ml BSA).
The corresponding ligands (fibrinogen, von Willebrand Factor, or vitronectin) were conjugated to biotin using commercially available reagents and standard protocols. The labeled ligands were added to the receptor-coated wells at final concentration of 10 nM (100 ul/well) and incubated for 3 hours at 25° C. in the presence or absence of the test samples. After incubation, the wells are aspirated to dryness and bound ligand is quantitated.
Decreased color development is observed in wells incubated with test samples which inhibit binding of ligand to receptor.

[3] = read-out: PRP (ADP-Citrate) IC50

T1 sequence (P08514 32-887 limits assumed): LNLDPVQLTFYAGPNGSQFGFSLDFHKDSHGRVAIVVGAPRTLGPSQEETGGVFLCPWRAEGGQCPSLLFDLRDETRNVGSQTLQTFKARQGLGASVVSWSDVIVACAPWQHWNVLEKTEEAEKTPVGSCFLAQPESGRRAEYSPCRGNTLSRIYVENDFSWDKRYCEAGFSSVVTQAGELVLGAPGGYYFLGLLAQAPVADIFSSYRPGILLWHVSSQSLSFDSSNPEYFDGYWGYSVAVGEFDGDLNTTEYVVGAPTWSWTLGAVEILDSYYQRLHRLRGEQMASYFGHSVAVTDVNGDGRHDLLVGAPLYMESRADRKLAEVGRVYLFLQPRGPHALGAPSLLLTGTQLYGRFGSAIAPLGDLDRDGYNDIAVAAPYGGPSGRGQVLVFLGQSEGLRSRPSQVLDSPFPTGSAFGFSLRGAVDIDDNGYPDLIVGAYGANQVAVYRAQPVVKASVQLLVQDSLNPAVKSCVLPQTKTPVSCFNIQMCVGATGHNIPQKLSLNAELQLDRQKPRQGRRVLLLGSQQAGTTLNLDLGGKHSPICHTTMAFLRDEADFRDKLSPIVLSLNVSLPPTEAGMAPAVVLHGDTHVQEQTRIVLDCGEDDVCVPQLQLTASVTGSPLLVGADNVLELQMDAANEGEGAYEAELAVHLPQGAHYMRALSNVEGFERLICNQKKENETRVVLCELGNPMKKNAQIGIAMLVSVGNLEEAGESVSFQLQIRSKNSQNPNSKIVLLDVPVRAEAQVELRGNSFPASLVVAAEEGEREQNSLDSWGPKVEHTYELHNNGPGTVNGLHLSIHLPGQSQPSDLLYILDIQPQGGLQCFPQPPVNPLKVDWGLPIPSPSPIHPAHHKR
T1 sequence (P08514 891-1039 limits assumed): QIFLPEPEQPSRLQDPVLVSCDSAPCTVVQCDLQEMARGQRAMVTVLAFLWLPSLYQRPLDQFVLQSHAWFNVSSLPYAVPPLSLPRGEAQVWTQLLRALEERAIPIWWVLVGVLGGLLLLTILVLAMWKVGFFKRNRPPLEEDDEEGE
T1 sequence (P05106 27-788): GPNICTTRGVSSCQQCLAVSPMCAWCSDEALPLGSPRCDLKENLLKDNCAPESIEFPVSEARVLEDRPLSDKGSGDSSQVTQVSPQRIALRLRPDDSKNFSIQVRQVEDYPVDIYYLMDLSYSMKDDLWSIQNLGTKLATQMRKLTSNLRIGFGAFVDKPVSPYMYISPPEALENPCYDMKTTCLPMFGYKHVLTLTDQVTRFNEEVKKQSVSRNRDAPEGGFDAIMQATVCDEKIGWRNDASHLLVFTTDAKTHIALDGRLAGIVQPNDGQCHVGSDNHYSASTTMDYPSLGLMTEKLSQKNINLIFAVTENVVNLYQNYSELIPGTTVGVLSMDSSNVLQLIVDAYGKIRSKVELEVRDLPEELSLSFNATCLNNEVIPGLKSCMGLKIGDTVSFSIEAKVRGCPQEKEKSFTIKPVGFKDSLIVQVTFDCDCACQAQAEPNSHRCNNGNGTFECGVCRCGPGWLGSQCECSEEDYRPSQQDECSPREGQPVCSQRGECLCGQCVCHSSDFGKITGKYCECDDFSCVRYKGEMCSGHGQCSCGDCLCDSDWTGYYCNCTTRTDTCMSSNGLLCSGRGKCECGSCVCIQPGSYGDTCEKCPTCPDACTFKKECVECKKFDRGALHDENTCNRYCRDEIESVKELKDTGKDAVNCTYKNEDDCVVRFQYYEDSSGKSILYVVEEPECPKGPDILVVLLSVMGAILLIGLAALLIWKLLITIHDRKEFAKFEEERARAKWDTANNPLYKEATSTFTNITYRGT

| Compound | pIC50 ([1]; read-out: PRP (ADP-PPACK) IC50) | pIC50 [2, 3] | pIC50 (GPIIb-IIIa) | pIC50 ([1]; read-out: PRP (PPACK) IC50) | pIC50 ([2]; read-out: PRP (ADP) IC50) | pIC50 ([2]; read-out: PRP IC50) |
| --- | --- | --- | --- | --- | --- | --- |
| Cc1noc(C)c1S(=O)(=O)N[C@@H](CNC(=O)C1CCC2(CC1)CCN(c1ccncc1)CC2)C(=O)O [Example 13, (2S)-2-{[(3,5-dimethyl-4-isoxazolyl)sulfonyl]amino}-3-({[3-(4-pyridyl)-3-azaspiro [5.5]undec-9-yl]carbonyl}amino)propanoic acid] | 7.17 | 7.36 | 9.00 |  |  |  |
| Cc1ccc(S(=O)(=O)N[C@@H](CNC(=O)C2CCC3(CC2)CCN(c2ccncc2)CC3)C(=O)O)cc1 [Example 14, (2S)-2-{[(4-methylphenyl)sulfonyl]amino}-3-({[3-(4-pyridyl)-3-azaspiro [5.5]undec-9-yl]carbonyl}amino)propanoic acid] | 6.77 | 7.01 | 9.00 |  |  |  |
| CCCCS(=O)(=O)N[C@@H](CNC(=O)C1CCC2(CC1)CCN(c1ccncc1)CC2)C(=O)O [Example 15] |  |  | 8.00 | 6.16 | 6.77 |  |
| O=C(O)COC1CCN(C(=O)N2CCC3(CCN(c4ccncc4)CC3)C2)CC1 [Example 26, 2-((1-((8-(4-pyridyl)-2,8-diazaspiro[4.5]dec-2-yl)carbonyl)-4-piperidyl)oxy)acetic acid] |  | 6.00 | 6.34 |  |  |  |
| O=C(O)CN1CCN(C(=O)N2CCC3(CCN(c4ccncc4)CC3)C2)CC1=O [Example 27, 2-(2-oxo-4-((8-(4-pyridyl)-2,8-diazaspiro[4.5]dec-2-yl)carbonyl)-4-piperazino) acetic acid] |  | 6.25 | 7.46 |  |  |  |
| O=C(O)CN1CCN(C(=O)N2CCC3(CC2)CCN(c2ccncc2)C3)CC1=O [Example 29, 2-(2-oxo-4-((2-(4-pyridyl)-2,8-diazaspiro[4.5]dec-8-yl)carbonyl)piperazino)acetic acid] |  | 5.58 | 6.91 |  |  |  |
| O=C(O)CC(=O)N1CCN(C(=O)N2CCC3(CC2)CCN(c2ccncc2)C3)CC1 [Example 31, 3-oxo-3-(4-{[-(4-pyridyl)-2,8-diazaspiro[4.5]dec-8-yl]carbonyl}piperazino) propanoic acid] | 5.44 | 6.18 |  |  |  |  |
| Cc1noc(C)c1S(=O)(=O)N[C@@H](CCC(=O)N1CCC2(CC1)CCN(c1ccncc1)C2)C(=O)O [Example 34, (2S)-2-{[(3,5-dimethyl-4-isoxazolyl)sulfonyl]amino}-5-oxo-5-[2-(4-pyridyl)-2,8-diazaspiro [4.5]dec-8-yl]pentanoic acid] |  | 6.57 | 8.70 |  |  |  |
| O=C(O)CN1CCN(C(=O)N2CCC3(CC2)CCN(c2ccncc2)C3)CC1 [Example 41] |  |  | 6.60 |  |  | 5.05 |
| O=C(O)CC(=O)N1CCCN(C(=O)N2CCC3(CC2)CCN(c2ccncc2)C3)CC1 [Example 43, 3-oxo-3-(4-{[2-(4-pyridyl)-2,8-diazaspiro[4.5]dec-8-yl]carbonyl}-1,4-diazepan-1-yl) propanoic acid] |  |  | 7.60 |  |  | 6.16 |
| O=C(O)COC1CCN(C(=O)N2CCC3(CC2)CCN(c2ccncc2)C3)CC1 [Example 44] |  |  | 6.86 |  |  | 5.42 |
| O=C(O)COCC1CCN(C(=O)N2CCC3(CC2)CCN(c2ccncc2)C3)CC1 [Example 45, 2-[(1-{[2-(4-pyridyl)-2,8-diazaspiro[4.5]dec-8-yl]carbonyl}-4-piperidyl)-methoxy]acetic acid] |  |  | 6.97 |  |  | 5.55 |
| O=C(O)CC(=O)NC1CCN(C(=O)N2CCC3(CC2)CCN(c2ccncc2)C3)C1 (stereo not drawn) [Example 47, 3-oxo-3-[(1-{[2-(4-pyridyl)-2,8-diazaspiro[4.5]dec-8-yl]carbonyl}-tetrahydro-1H-3-pyrrolyl)amino]propanoic acid] |  |  | 6.35 |  |  | 5.23 |
| O=C(O)CCN1CCC(C(=O)N2CCC3(CC2)CCN(c2ccncc2)C3)CC1 [Example 49, 3-(4-{[2-(4-pyridyl)-2,8-diazaspiro[4.5]dec-8-yl]carbonyl}piperidino) propanoic acid] |  |  | 7.77 |  |  | 6.00 |
| O=C(O)CS(=O)(=O)N1CCC(C(=O)N2CCC3(CC2)CCN(c2ccncc2)C3)CC1 [Example 51, ethyl 2-[(4-{[2-(4-pyridyl)-2,8-diazaspiro[4.5]dec-8-yl]carbonyl}-piperidino)sulfonyl]acetic acid] |  | 6.03 | 7.03 |  |  |  |
| O=C(O)Cn1ccc2cc(C(=O)N3CCC4(CC3)CCN(c3ccncc3)C4)ccc21 [Example 53, 2-(5-{[2(4-pyridyl)-2,8-diazaspiro[4,5]dec-8-yl]carbonyl}-1H-1-indolyl) acetic acid] |  | 6.02 | 7.33 |  |  |  |
| O=C(O)Cc1csc(NC(=O)CN2CCC3(CC2)CCN(c2ccncc2)C3)n1 [Example 54, 2-[2-({2-[2-(4-pyridyl)-2,8-diazaspiro[4.5]dec-8-yl]acetyl}amino)-1,3-thiazol-4-yl]acetic acid] |  | 4.49 | 5.64 |  |  |  |
| O=C(O)CCNC(=O)N1CCC2(CC1)CCN(c1ccncc1)C2 [Example 55, 3-({[2-(4-pyridyl)-2,8-diazaspiro[4.5]dec-8-yl]carbonyl}amino)propanoic acid] |  | 4.46 | 4.54 |  |  |  |
